Experimental data from the NIST ThermoML archive (doi:10.1021/je060271a).
Several values for one entry are separate records, joined by “and”; a condition that tells them apart may be missing. Equal entries are not always repeated.

Details: 303.16 K, Liquid, Vibrating tube method

CCCCCC(=O)OCC(COC(=O)CCCCC)(COC(=O)CCCCC)COC(=O)CCCCC [pentaerythritol tetrahexanoate]
Details	mass density
291.9 kPa	988.7 kg/m3
292.2 kPa	988.5 kg/m3
292.6 kPa	988.6 kg/m3
292.9 kPa	988.6 kg/m3
297.1 kPa	988.4 kg/m3
297.8 kPa	988.5 kg/m3
298.1 kPa	988.6 kg/m3
298.5 kPa	988.5 kg/m3
298.7 kPa	988.6 kg/m3
299.2 kPa	988.5 kg/m3
299.3 kPa	988.6 kg/m3
299.9 kPa	988.4 kg/m3 and 988.6 kg/m3
300.4 kPa	988.6 kg/m3
300.7 kPa	988.6 kg/m3
301.1 kPa	988.6 kg/m3
301.2 kPa	988.6 kg/m3
301.6 kPa	988.6 kg/m3
302 kPa	988.5 kg/m3
302.1 kPa	988.5 kg/m3
302.7 kPa	988.6 kg/m3
303 kPa	988.5 kg/m3
303.2 kPa	988.5 kg/m3
303.7 kPa	988.5 kg/m3
303.9 kPa	988.6 kg/m3
304.2 kPa	988.5 kg/m3
304.5 kPa	988.6 kg/m3
304.7 kPa	988.6 kg/m3
305.1 kPa	988.5 kg/m3
306.3 kPa	988.5 kg/m3
306.6 kPa	988.6 kg/m3
307 kPa	988.6 kg/m3
307.3 kPa	988.6 kg/m3
307.8 kPa	988.5 kg/m3
307.9 kPa	988.5 kg/m3
308.2 kPa	988.5 kg/m3
308.7 kPa	988.6 kg/m3
309.1 kPa	988.5 kg/m3
309.4 kPa	988.6 kg/m3
309.8 kPa	988.5 kg/m3
310.1 kPa	988.5 kg/m3
310.8 kPa	988.5 kg/m3
311 kPa	988.5 kg/m3
311.3 kPa	988.6 kg/m3
311.7 kPa	988.6 kg/m3
311.9 kPa	988.5 kg/m3
312.2 kPa	988.6 kg/m3
312.5 kPa	988.6 kg/m3
313.6 kPa	988.6 kg/m3
314.6 kPa	988.6 kg/m3
315.8 kPa	988.6 kg/m3
316.7 kPa	988.5 kg/m3
317.1 kPa	988.4 kg/m3
317.2 kPa	988.6 kg/m3
317.4 kPa	988.5 kg/m3
317.9 kPa	988.5 kg/m3
318.1 kPa	988.6 kg/m3
318.5 kPa	988.6 kg/m3
318.6 kPa	988.6 kg/m3
318.8 kPa	988.5 kg/m3
319 kPa	988.5 kg/m3
319.3 kPa	988.5 kg/m3
319.5 kPa	988.5 kg/m3
319.8 kPa	988.5 kg/m3
320.4 kPa	988.5 kg/m3
320.9 kPa	988.5 kg/m3
321.2 kPa	988.5 kg/m3
321.9 kPa	988.6 kg/m3
322.3 kPa	988.6 kg/m3
324.7 kPa	988.5 kg/m3
325.6 kPa	988.6 kg/m3
326.1 kPa	988.6 kg/m3
326.6 kPa	988.4 kg/m3 and 988.6 kg/m3
327 kPa	988.6 kg/m3
327.1 kPa	988.6 kg/m3
327.3 kPa	988.6 kg/m3
327.7 kPa	988.6 kg/m3
328.4 kPa	988.5 kg/m3
328.9 kPa	988.6 kg/m3
329.1 kPa	988.6 kg/m3
333.2 kPa	988.6 kg/m3
333.9 kPa	988.6 kg/m3
339.3 kPa	988.7 kg/m3
339.7 kPa	988.6 kg/m3
340.3 kPa	988.7 kg/m3
341 kPa	988.6 kg/m3
344.3 kPa	988.5 kg/m3
344.5 kPa	988.7 kg/m3
344.7 kPa	988.6 kg/m3
345.2 kPa	988.6 kg/m3
345.5 kPa	988.6 kg/m3
346.2 kPa	988.5 kg/m3
346.6 kPa	988.7 kg/m3
346.9 kPa	988.6 kg/m3
347.3 kPa	988.5 kg/m3
347.6 kPa	988.6 kg/m3
348.2 kPa	988.7 kg/m3
348.7 kPa	988.6 kg/m3
349.2 kPa	988.5 kg/m3 and 988.6 kg/m3
349.4 kPa	988.6 kg/m3
349.9 kPa	988.5 kg/m3
350.6 kPa	988.5 kg/m3
350.9 kPa	988.6 kg/m3
351.5 kPa	988.7 kg/m3 and 988.6 kg/m3
352 kPa	988.6 kg/m3
352.8 kPa	988.6 kg/m3
353.2 kPa	988.8 kg/m3 and 988.5 kg/m3
353.4 kPa	988.6 kg/m3
353.5 kPa	988.6 kg/m3
354.1 kPa	988.7 kg/m3
354.2 kPa	988.6 kg/m3
354.6 kPa	988.6 kg/m3
354.9 kPa	988.6 kg/m3
358.1 kPa	988.6 kg/m3
358.4 kPa	988.7 kg/m3
358.9 kPa	988.6 kg/m3
359.4 kPa	988.6 kg/m3
359.8 kPa	988.6 kg/m3
360.3 kPa	988.6 kg/m3 and 988.5 kg/m3
364.5 kPa	988.6 kg/m3
365 kPa	988.7 kg/m3
365.2 kPa	988.5 kg/m3
365.9 kPa	988.7 kg/m3
366.2 kPa	988.7 kg/m3
366.6 kPa	988.7 kg/m3
367.3 kPa	988.8 kg/m3
367.6 kPa	988.6 kg/m3
368 kPa	988.6 kg/m3
368.3 kPa	988.6 kg/m3
368.6 kPa	988.7 kg/m3
369.5 kPa	988.6 kg/m3
369.9 kPa	988.6 kg/m3
370 kPa	988.5 kg/m3
370.2 kPa	988.6 kg/m3
371.1 kPa	988.6 kg/m3
371.3 kPa	988.6 kg/m3
371.6 kPa	988.7 kg/m3
372.1 kPa	988.7 kg/m3
372.5 kPa	988.5 kg/m3
373 kPa	988.6 kg/m3
373.5 kPa	988.7 kg/m3
374.2 kPa	988.6 kg/m3
374.6 kPa	988.6 kg/m3
374.9 kPa	988.6 kg/m3
375.4 kPa	988.7 kg/m3
380.8 kPa	988.5 kg/m3
382.9 kPa	988.7 kg/m3
385.3 kPa	988.6 kg/m3
387.4 kPa	988.6 kg/m3
454.3 kPa	988.6 kg/m3
457.1 kPa	988.6 kg/m3
461.3 kPa	988.6 kg/m3
465.1 kPa	988.6 kg/m3
468 kPa	988.6 kg/m3
470.8 kPa	988.7 kg/m3
474.1 kPa	988.6 kg/m3
478 kPa	988.6 kg/m3
481.2 kPa	988.6 kg/m3
484.7 kPa	988.7 kg/m3
488.4 kPa	988.7 kg/m3
491.7 kPa	988.7 kg/m3
495.5 kPa	988.7 kg/m3
498.8 kPa	988.7 kg/m3
502.4 kPa	988.7 kg/m3
505.6 kPa	988.6 kg/m3
509.2 kPa	988.8 kg/m3
513.8 kPa	988.7 kg/m3
517.4 kPa	988.7 kg/m3
521.2 kPa	988.6 kg/m3
525.6 kPa	988.7 kg/m3
529.6 kPa	988.8 kg/m3
534.1 kPa	988.7 kg/m3
537.9 kPa	988.6 kg/m3
542.3 kPa	988.9 kg/m3
546.9 kPa	988.7 kg/m3
550.9 kPa	988.7 kg/m3
555.3 kPa	988.8 kg/m3
559.5 kPa	988.8 kg/m3
564.3 kPa	988.8 kg/m3
569 kPa	988.8 kg/m3
574.4 kPa	988.9 kg/m3
692 kPa	988.8 kg/m3
698.5 kPa	988.8 kg/m3
706.1 kPa	988.8 kg/m3
712.5 kPa	988.8 kg/m3
719.3 kPa	988.9 kg/m3
727 kPa	988.7 kg/m3
734.3 kPa	988.8 kg/m3
741.2 kPa	988.8 kg/m3
748.1 kPa	988.8 kg/m3
756.7 kPa	988.8 kg/m3
763.8 kPa	988.9 kg/m3
771.6 kPa	988.9 kg/m3
779.1 kPa	988.8 kg/m3
788.5 kPa	988.9 kg/m3
796.3 kPa	988.8 kg/m3
804.1 kPa	988.8 kg/m3
811.9 kPa	988.9 kg/m3
821.6 kPa	988.9 kg/m3
829.8 kPa	988.8 kg/m3
848 kPa	988.8 kg/m3
856.6 kPa	988.9 kg/m3
864.9 kPa	989 kg/m3
1404 kPa	989.4 kg/m3
1416.2 kPa	989.4 kg/m3
1431.1 kPa	989.2 kg/m3
1443.8 kPa	989.3 kg/m3
1456.5 kPa	989.3 kg/m3
1642.7 kPa	989.5 kg/m3
1657.5 kPa	989.4 kg/m3
1672.3 kPa	989.4 kg/m3
1686.8 kPa	989.3 kg/m3
1704.7 kPa	989.4 kg/m3
1818.6 kPa	989.6 kg/m3
1834.9 kPa	989.6 kg/m3
1940.6 kPa	989.6 kg/m3
1957.6 kPa	989.6 kg/m3
1975.3 kPa	989.7 kg/m3
1996.3 kPa	989.5 kg/m3
2014.2 kPa	989.6 kg/m3
2035.9 kPa	989.6 kg/m3
2053.6 kPa	989.7 kg/m3
2072.3 kPa	989.7 kg/m3
2129.6 kPa	989.6 kg/m3
2148.3 kPa	989.7 kg/m3
2190 kPa	989.9 kg/m3
2209.4 kPa	989.7 kg/m3
2272.4 kPa	989.7 kg/m3
4203.4 kPa	991.1 kg/m3
4236.8 kPa	991 kg/m3
4264.7 kPa	991.2 kg/m3
4292.6 kPa	991.1 kg/m3
4320.1 kPa	991.1 kg/m3
4352.9 kPa	991.2 kg/m3
4379.7 kPa	991.1 kg/m3
4406.5 kPa	991.2 kg/m3
4438.4 kPa	991.1 kg/m3
4464.5 kPa	991.2 kg/m3
4490.5 kPa	991.3 kg/m3
4516.1 kPa	991.2 kg/m3
4546.4 kPa	991.3 kg/m3
4570.9 kPa	991.3 kg/m3
4594.9 kPa	991.4 kg/m3
4622.1 kPa	991.2 kg/m3
4643.9 kPa	991.3 kg/m3
4664.2 kPa	991.3 kg/m3
4683 kPa	991.5 kg/m3
4704.7 kPa	991.4 kg/m3
4723 kPa	991.4 kg/m3
4740.8 kPa	991.3 kg/m3
4757.6 kPa	991.4 kg/m3
4774.9 kPa	991.4 kg/m3
4794.3 kPa	991.6 kg/m3
4810.9 kPa	991.4 kg/m3
4827 kPa	991.4 kg/m3
4842.8 kPa	991.5 kg/m3
4861.3 kPa	991.4 kg/m3
4908.5 kPa	991.5 kg/m3
5374.3 kPa	991.8 kg/m3
5390.7 kPa	991.8 kg/m3
5411 kPa	991.8 kg/m3
5427.2 kPa	991.8 kg/m3
5447.1 kPa	991.9 kg/m3
5464.4 kPa	991.8 kg/m3
5481.4 kPa	991.9 kg/m3
5498.1 kPa	991.8 kg/m3
5518.7 kPa	991.9 kg/m3
5591.9 kPa	992 kg/m3
5609.7 kPa	992 kg/m3
5627.2 kPa	991.9 kg/m3
5647.7 kPa	991.9 kg/m3
5665.4 kPa	992 kg/m3
5875.7 kPa	992.1 kg/m3
5894 kPa	992.1 kg/m3
5931.3 kPa	992.1 kg/m3
5953.6 kPa	992.2 kg/m3
5972 kPa	992.2 kg/m3
5990.6 kPa	992.2 kg/m3
6012.9 kPa	992.2 kg/m3
6031.6 kPa	992.2 kg/m3
6050.3 kPa	992.2 kg/m3
6072.9 kPa	992.2 kg/m3
6111.5 kPa	992.2 kg/m3
10602 kPa	995.1 kg/m3
10632 kPa	995.1 kg/m3
10660 kPa	995.1 kg/m3
10689 kPa	995 kg/m3
10724 kPa	995.1 kg/m3
10753 kPa	995.2 kg/m3
10782 kPa	995.1 kg/m3
